Legend:
[1] = Solubility in distilled water; format: physicochemical; settings: distilled water at 25° C
From the text: (§1) The product is removed from the internal mixer and passed through the cooled rolls of a 3×8 inch roller mill to form a 0.8 mm thick film, with portions of the film compression molded between heated plattens of a hydraulic press to form 0.4 mm thick film. The film is cooled, and elliptical ocular shaped devices are punched from the dry film.

[2] = Osmotic pressure of the solute (vapor pressure osmometer); format: physicochemical
From the text: The osmotic pressure, ATM, of the solute can be measured in a commercially available osmometer that measures the vapor pressure difference between pure water and a solution containing a solute to be analyzed, and according to standard thermodynamic principles, the vapor pressure ratio is converted into an osmotic pressure. An osmometer that can be used for the present measurements is the Model 302B, Vapor Pressure Osmometer, manufactured by the Hewlett Packark Company, Avondale, Pennsylvania.
as §1

[3] = tested on: intraocular pressure associated with glaucoma; settings: liquid eyedrops; cited from earlier work

SMILES	solubility [1] [mg/mL]	osmotic pressure [2] [atm]	lowering of intraocular pressure [3]
COCCc1ccc(OCC(O)CNC(C)C)cc1.O=C(O)C(O)C(O)C(=O)O (racemic) [(±)-1-[4-(2-methoxyethyl)-phenoxy]-3-[(1-methylethyl)amino]-2-propanol tartrate]	860	210	–
CC(C)(C)NC[C@H](O)COc1nsnc1N1CCOCC1 [timolol]	–	–	lowering intraocular pressure associated with glaucoma
